Literature values as cited in US20150132347A1, “TREATING INFLAMMATORY CONDITIONS AND IMPROVING ORAL HYGIENE USING METAL MODULATORS WITH METHYLSULFONYLMETHANE AS TRANSPORT ENHANCER” (priority 2012, published 2015).

Conditions: in water @ 79° F.

SMILES: CS(C)(=O)=O [MSM, methylsulfonylmethane]
- water solubility: 34 % w/v
